# Measurements as given in article PMC11435058, “Synthesis of New Thiazole-Privileged Chalcones as Tubulin Polymerization Inhibitors with Potential Anticancer Activities” (Pharmaceuticals, 2024).
# Tests used:
# [1] = system: OVCAR-5; experiment: NCI-60 anticancer screen (SRB; single dose and five doses); conditions: Homo sapiens
# [2] = system: IGROV1; experiment: as above; conditions: Homo sapiens
# [3] = system: HS 578T; experiment: as above; conditions: Homo sapiens
# [4] = system: SF-268; experiment: as above; conditions: Homo sapiens
# [5] = system: SNB-75; experiment: as above
# [6] = system: MCF7; experiment: as above; conditions: Homo sapiens
# [7] = system: T-47D; experiment: as above; conditions: Homo sapiens, T47D
# [8] = system: U251; experiment: as above; conditions: Homo sapiens
# [9] = system: KM12; experiment: as above; conditions: Homo sapiens
# [10] = system: OVCAR-4; experiment: as above; conditions: Homo sapiens
# [11] = system: K-562; experiment: as above; conditions: Homo sapiens
# [12] = system: MDA-MB-231/ATCC; experiment: as above; conditions: Homo sapiens
# [13] = system: HT29; experiment: as above; conditions: Homo sapiens
# [14] = system: UO-31; experiment: as above; conditions: Homo sapiens
# [15] = system: SW-620; experiment: as above; conditions: Homo sapiens
# [16] = system: CAKI-1; experiment: as above; conditions: Homo sapiens
# [17] = system: LOX IMVI; experiment: as above; conditions: Homo sapiens
# [18] = system: UACC-257; experiment: as above; conditions: Homo sapiens
# [19] = system: UACC-62; experiment: as above; conditions: Homo sapiens
# [20] = system: OVCAR-3; experiment: cells; conditions: Homo sapiens
# [21] = system: EKVX; experiment: NCI-60 anticancer screen (SRB; single dose and five doses); conditions: Homo sapiens
# [22] = system: HL-60(TB); experiment: as above; conditions: Homo sapiens
# [23] = system: SK-MEL-2; experiment: as above; conditions: Homo sapiens
# [24] = system: SK-MEL-5; experiment: as above; conditions: Homo sapiens
# [25] = system: SR; experiment: as above; conditions: Homo sapiens
# [26] = system: 786-0; experiment: as above; conditions: Homo sapiens
# [27] = system: MDA-MB-435; experiment: as above; conditions: Homo sapiens
# [28] = system: SN12C; experiment: as above; conditions: Homo sapiens
# [29] = system: DU-145; experiment: as above; conditions: Homo sapiens
# [30] = 48 h, read-out: Growth Percentage
structure (smiles),measurement,setting,value
"COc1cc(/C=C/C(=O)c2sc(=S)[nH]c2C)cc(OC)c1OC [2p, (E)-1-(4-Methyl-2-Thioxo-2,3-Dihydrothiazol-5-yl)-3-(3,4,5-Trimethoxyphenyl)Prop-2-En-1-One]",GI50,[1]; OVCAR-5,3.8 µM
same,IC50,[1]; OVCAR-5,12.3 µM
same,activity at 10 µM,"[1]; OVCAR-5, 48 h, read-out: Growth Percentage",6.56%
same,CC50,"[1]; OVCAR-5, read-out: LC50",43.6 µM
same,IC (TGI),"[1]; OVCAR-5, read-out: TGI",15.1 µM
same,GI50,[2]; IGROV-1,3.31 µM
same,IC50,[2]; IGROV-1,5.75 µM
same,CC50,"[2]; IGROV-1, read-out: LC50",> 100 µM
same,IC (TGI),"[2]; IGROV-1, read-out: TGI",13.8 µM
same,GI50,[3],2.88 µM
same,IC50,[3],> 100 µM
same,activity at 10 µM,[3]; [30],3.94%
same,CC50,[3]; read-out: LC50,> 100 µM
same,IC (TGI),[3]; read-out: TGI,39.8 µM
same,GI50,[4]; SF-268,2.63 µM
same,IC50,[4]; SF-268,6.46 µM
same,activity at 10 µM,"[4]; SF-268, 48 h, read-out: Growth Percentage",18.5%
same,CC50,"[4]; SF-268, read-out: LC50",55 µM
same,IC (TGI),"[4]; SF-268, read-out: TGI",11.2 µM
same,GI50,"[5]; Homo sapiens, SNB-75",2.19 µM
same,IC50,"[5]; Homo sapiens, SNB-75",7.59 µM
same,CC50,"[5]; Homo sapiens, SNB-75, read-out: LC50",28.8 µM
same,TGI,"[5]; five-dose, CNS Cancer SNB-75",6.17 µM
same,GI50,[6]; MCF7,3.02 µM
same,IC50,[6]; MCF7,4.27 µM
same,activity at 10 µM,"[6]; MCF7, 48 h, read-out: Growth Percentage",9.35%
same,CC50,"[6]; MCF7, read-out: LC50",45.7 µM
same,IC (TGI),"[6]; MCF7, read-out: TGI",10.7 µM
same,GI50,[7],2.19 µM
same,IC50,[7],7.24 µM
same,activity at 10 µM,[7]; [30],-1.59%
same,CC50,[7]; read-out: LC50,> 100 µM
same,IC (TGI),[7]; read-out: TGI,13.2 µM
same,GI50,[8]; U-251,3.02 µM
same,IC50,[8]; U-251,4.17 µM
same,activity at 10 µM,"[8]; U-251, 48 h, read-out: Growth Percentage",15%
same,CC50,"[8]; U-251, read-out: LC50",43.6 µM
same,IC (TGI),"[8]; U-251, read-out: TGI",12 µM
same,GI50,[9]; KM12,3.24 µM
same,IC50,[9]; KM12,6.46 µM
same,activity at 10 µM,"[9]; KM12, 48 h, read-out: Growth Percentage",9.52%
same,CC50,"[9]; KM12, read-out: LC50",42.7 µM
same,IC (TGI),"[9]; KM12, read-out: TGI",13.8 µM
same,GI50,[10]; OVCAR-4,2.82 µM
same,IC50,[10]; OVCAR-4,6.61 µM
same,activity at 10 µM,"[10]; OVCAR-4, 48 h, read-out: Growth Percentage",15.6%
same,CC50,"[10]; OVCAR-4, read-out: LC50",51.3 µM
same,IC (TGI),"[10]; OVCAR-4, read-out: TGI",12.6 µM
same,GI50,[11]; K562,3.02 µM
same,IC50,[11]; K562,3.72 µM
same,activity at 10 µM,"[11]; K562, 48 h, read-out: Growth Percentage",8.21%
same,CC50,"[11]; K562, read-out: LC50",> 100 µM
same,IC (TGI),"[11]; K562, read-out: TGI",> 100 µM
same,GI50,[12]; MDA-MB-231,3.24 µM
same,IC50,[12]; MDA-MB-231,10 µM
same,activity at 10 µM,"[12]; MDA-MB-231, 48 h, read-out: Growth Percentage",2.51%
same,CC50,"[12]; MDA-MB-231, read-out: LC50",> 100 µM
same,IC (TGI),"[12]; MDA-MB-231, read-out: TGI",13.2 µM
same,GI50,[13]; HT-29,3.47 µM
same,IC50,[13]; HT-29,4.57 µM
same,activity at 10 µM,"[13]; HT-29, 48 h, read-out: Growth Percentage",40.1%
same,CC50,"[13]; HT-29, read-out: LC50",> 100 µM
same,IC (TGI),"[13]; HT-29, read-out: TGI",13.5 µM
same,GI50,[14]; UO-31,3.02 µM
same,IC50,[14]; UO-31,7.76 µM
same,IC (TGI),"[14]; UO-31, read-out: TGI",15.5 µM
same,GI50,[15]; SW-620,2.57 µM
same,IC50,[15]; SW-620,3.72 µM
same,activity at 10 µM,"[15]; SW-620, 48 h, read-out: Growth Percentage",6.92%
same,CC50,"[15]; SW-620, read-out: LC50",46.8 µM
same,IC (TGI),"[15]; SW-620, read-out: TGI",9.77 µM
same,GI50,[16]; CAKI-1,2.57 µM
same,IC50,[16]; CAKI-1,4.68 µM
same,activity at 10 µM,"[16]; CAKI-1, 48 h, read-out: Growth Percentage",28.2%
same,CC50,"[16]; CAKI-1, read-out: LC50",45.7 µM
same,IC (TGI),"[16]; CAKI-1, read-out: TGI",13.2 µM
same,GI50,[17],3.24 µM
same,IC50,[17],4.47 µM
same,activity at 10 µM,[17]; [30],17.1%
same,CC50,[17]; read-out: LC50,38.9 µM
same,IC (TGI),[17]; read-out: TGI,12 µM
same,GI50,[18]; UACC-257,5.13 µM
same,IC50,[18]; UACC-257,18.6 µM
same,activity at 10 µM,"[18]; UACC-257, 48 h, read-out: Growth Percentage",42.1%
same,CC50,"[18]; UACC-257, read-out: LC50",75.9 µM
same,IC (TGI),"[18]; UACC-257, read-out: TGI",21.9 µM
same,GI50,[19]; UACC-62,2.82 µM
same,IC50,[19]; UACC-62,5.37 µM
same,activity at 10 µM,"[19]; UACC-62, 48 h, read-out: Growth Percentage",-3.11%
same,IC (TGI),"[19]; UACC-62, read-out: TGI",12.3 µM
same,GI50,[20]; OVCAR-3,2.45 µM
same,activity at 10 µM,"[20]; OVCAR-3, 48 h, read-out: Growth Percentage",-25.2%
same,IC50,"[20]; OVCAR-3, five-dose, Ovarian Cancer OVCAR-3",5.25 µM
same,CC50,"[20]; OVCAR-3, read-out: LC50",25.7 µM
same,IC (TGI),"[20]; OVCAR-3, read-out: TGI",6.92 µM
same,GI50,[21],4.07 µM
same,IC50,[21],11 µM
same,activity at 10 µM,[21]; [30],23.4%
same,CC50,[21]; read-out: LC50,> 100 µM
same,IC (TGI),[21]; read-out: TGI,22.9 µM
same,GI50,[22]; HL-60,2.57 µM
same,IC50,[22]; HL-60,3.89 µM
same,activity at 10 µM,"[22]; HL-60, 48 h, read-out: Growth Percentage",3.95%
same,CC50,"[22]; HL-60, read-out: LC50",> 100 µM
same,IC (TGI),"[22]; HL-60, read-out: TGI",11.2 µM
same,GI50,[23]; SK-MEL-2,3.09 µM
same,IC50,[23]; SK-MEL-2,11 µM
same,activity at 10 µM,"[23]; SK-MEL-2, 48 h, read-out: Growth Percentage",34.9%
same,CC50,"[23]; SK-MEL-2, read-out: LC50",42.7 µM
same,IC (TGI),"[23]; SK-MEL-2, read-out: TGI",11.5 µM
same,GI50,[24]; SK-MEL-5,1.58 µM
same,IC50,[24]; SK-MEL-5,3.31 µM
same,activity at 10 µM,"[24]; SK-MEL-5, 48 h, read-out: Growth Percentage",-64.6%
same,CC50,"[24]; SK-MEL-5, read-out: LC50",10 µM
same,IC (TGI),"[24]; SK-MEL-5, read-out: TGI",3.98 µM
same,GI50,[25],2.34 µM
same,IC50,[25],3.8 µM
same,CC50,[25]; read-out: LC50,> 100 µM
same,IC (TGI),[25]; read-out: TGI,16.2 µM
same,GI50,[26]; 786-0,4.57 µM
same,IC50,[26]; 786-0,6.61 µM
same,activity at 10 µM,"[26]; 786-0, 48 h, read-out: Growth Percentage",21.1%
same,CC50,"[26]; 786-0, read-out: LC50",97.7 µM
same,IC (TGI),"[26]; 786-0, read-out: TGI",20.9 µM
same,GI50,[27]; MDA-MB-435,2.57 µM
same,IC50,[27]; MDA-MB-435,4.47 µM
same,activity at 10 µM,"[27]; MDA-MB-435, 48 h, read-out: Growth Percentage",11%
same,CC50,"[27]; MDA-MB-435, read-out: LC50",> 100 µM
same,IC (TGI),"[27]; MDA-MB-435, read-out: TGI",10.5 µM
same,GI50,[28],2.29 µM
same,IC50,[28],3.89 µM
same,activity at 10 µM,[28]; [30],7.3%
same,CC50,[28]; read-out: LC50,46.8 µM
same,IC (TGI),[28]; read-out: TGI,9.55 µM
same,GI50,[29]; DU-145,3.24 µM
same,IC50,[29]; DU-145,5.75 µM
same,activity at 10 µM,"[29]; DU-145, 48 h, read-out: Growth Percentage",12.9%
same,CC50,"[29]; DU-145, read-out: LC50",69.2 µM
same,IC (TGI),"[29]; DU-145, read-out: TGI",15.5 µM
